Reference: PubChem BioAssay AID1845228

Settings: pampa; 60.0 min; 50.0 µM

Row | SMILES | Papp [×10⁻⁶ cm/s]
1 | CC(C)(C)c1ccc2c(c1)CC[C@H]2NC(=O)Nc1cccc2[nH]ncc12 | < 1
2 | CC1(C)S[C@@H]2[C@H](NC(=O)COc3ccccc3)C(=O)N2[C@H]1C(=O)O | 6
3 | N=c1c2c(-c3ccccc3)c(-c3ccccc3)n(Cc3ccccc3)c2ncn1CCO | 223
4 | NC(=O)c1cccc(-c2cc(O)cc(OC(=O)NC3CCCCC3)c2)c1 | 6
5 | O=C(O)C1=C(CSc2nnnn2CS(=O)(=O)O)CS[C@@H]2[C@H](NC(=O)[C@H](O)c3ccccc3)C(=O)N12 | 12
6 | Cn1nnnc1Sc1ncnc2scc(-c3cccc4ccccc34)c12 | 265
7 | CC(C)C(=O)OCc1cccc(OC(=O)[C@@H]2N3C(=O)[C@@H](NC(=O)Cc4ccccc4)[C@H]3SC2(C)C)c1 | 84
8 | CC1(C#N)CCN(c2c(C(=O)N3CCN(S(C)(=O)=O)CC3)cnc3ccc(F)cc23)CC1 | 19
9 | CCCN(CCC)CCc1cccc2c1CC(=O)N2 | 34
10 | N=c1c2c(-c3ccccc3)c(-c3ccccc3)n(CCc3ccccc3)c2ncn1CCCCO | 218
11 | CCOC(=O)[C@H](CCc1ccccc1)N[C@@H](C)C(=O)N1C(=O)N(C)C[C@H]1C(=O)O | < 1
12 | COc1ccc(Cn2c(-c3ccccc3)c(-c3ccccc3)c3c(=N)n(CCO)cnc32)cc1 | 279
13 | CC(=O)c1cc2c(s1)c1cnn(Cc3ccccc3F)c(=O)c1n2C | > 300
14 | Cn1nnnc1SCC1=C(C(=O)O)N2C(=O)[C@@H](NC(=O)[C@H](OC=O)c3ccccc3)[C@H]2SC1 | < 1
15 | CC(Cc1ccc2c(c1)OCO2)NCC(O)c1ccc(O)c(O)c1 (centres undefined) | 6
16 | COc1ccc(Cn2c(-c3ccccc3)c(-c3ccccc3)c3c(=N)n(N4CCOCC4)cnc32)cc1 | 160
17 | CCOC(=O)c1cc(=O)c2c(OCC(COc3cccc4oc(C(=O)OCC)cc(=O)c34)OC(=O)[C@@H](N)CCCCN)cccc2o1 | < 1
18 | CC(Oc1ccccc1)C(=O)N[C@@H]1C(=O)N2[C@@H]1SC(C)(C)[C@@H]2C(=O)O (some centres undefined) | 25
19 | CC[C@@H]1CN(C(=O)NCC(F)(F)F)C[C@@H]1c1cnc2cnc3[nH]ccc3n12 | 2
20 | CCN(CC)CCCC(C)Nc1ccnc2cc(Cl)ccc12 (centres undefined) | 8
21 | Cn1nnnc1Sc1ncnc2scc(-c3cccc(Cl)c3)c12 | 134
22 | NCCc1ccc(O)c(O)c1 | < 1
23 | Cc1ncc(COP(=O)(O)O)c(C=O)c1O | < 1
24 | COC(=O)N[C@H](C(=O)N1CCC[C@H]1C(=O)Nc1ccc([C@@H]2CC[C@@H](c3ccc(NC(=O)[C@@H]4CCCN4C(=O)[C@@H](NC(=O)OC)C(C)C)cc3)N2c2ccc(C(C)(C)C)cc2)cc1)C(C)C | < 1

Row | SMILES | Papp [×10⁻⁶ cm/s]
25 | CNC(=O)C1CCN(C(=O)c2ccc(-c3ncc4cnc(-c5ccccc5)cn34)cc2)CC1 | 12
26 | Cc1onc(-c2c(Cl)cccc2Cl)c1CC(=O)NCc1ccc(OCC(F)(F)F)nc1 | 204
27 | C=CC1=C(C(=O)O)N2C(=O)[C@@H](NC(=O)/C(=N\O)c3csc(N)n3)[C@H]2SC1 | < 1
28 | N=c1c2c(-c3ccccc3)cn(Cc3ccccc3)c2ncn1CCCCO | 110
29 | COc1ccc(C)cc1Nc1c2c(nc3ccccc13)CCC2 | 215
30 | CCC1=C[C@@H]2CN(C1)Cc1c([nH]c3ccccc13)[C@@](C(=O)OC)(c1cc3c(cc1OC)N(C)[C@H]1[C@@](O)(C(=O)OC)[C@H](OC(C)=O)[C@]4(CC)C=CCN5CC[C@]31[C@@H]54)C2 | 30
31 | N=c1c2c(-c3ccccc3)cn(Cc3ccccc3)c2ncn1Cc1ccco1 | 226
32 | CCc1ccc(C2C(C(=O)Nc3ccccc3OC)=C(C)Nc3c(C(=O)Nc4ccc(C)cc4)cnn32)cc1 (centres undefined) | 26
33 | N=c1c2c(-c3ccccc3)cn(Cc3ccccc3)c2ncn1[C@H](CO)Cc1ccccc1 | 22
34 | Cc1nc(C2CCCCC2)c(-c2ccc(S(N)(=O)=O)c(F)c2)o1 | 172
35 | N=c1c2c(-c3ccccc3)c(-c3ccccc3)n(Cc3ccccc3)c2ncn1Cc1ccc2c(c1)OCO2 | 3
36 | Cc1ccc(CN2C(=O)C(=O)c3cc(Br)cc(C)c32)cc1 | 98.5
37 | c1ccc(CNCCNCc2ccccc2)cc1 | 107
38 | Cc1cc(-c2nc(C(=O)Nc3cn(C4CCOCC4)nc3C(N)=O)co2)ccn1 | 43
39 | N=c1c2c(-c3ccccc3)cn(Cc3ccc(Br)cc3)c2ncn1CCCCO | 208
40 | CC(C)NC(=O)COc1cccc(-c2nc(Nc3ccc4[nH]ncc4c3)c3ccccc3n2)c1 | 226
41 | CC[C@@]1(O)C(=O)OCc2c1cc1n(c2=O)Cc2cc3c(CN(C)C)c(O)ccc3nc2-1 | 1.37
42 | C[C@@H]1COCCN1c1cc(C2(S(C)(=N)=O)CC2)nc(-c2ccnc3[nH]ccc23)n1 (some centres undefined) | 33
43 | CCC1C(C)=NN=C(c2ccc(OC)c(OC)c2)c2cc(OC)c(OC)cc21 (centres undefined) | 91
44 | COc1ccc(CCNC(=O)CCc2c(C)c3cc4c(C)coc4cc3oc2=O)cc1 | 279
45 | CCO[C@@H]1OC(=O)C[C@@H]1NC(=O)[C@@H]1CCCN2C(=O)CC[C@H](NC(=O)c3nccc4ccccc34)C(=O)N12 | < 1
46 | Nc1nc(N)c2c(OCC3CCN(Cc4ccccc4F)CC3)cccc2n1 | 12
47 | Cc1ccc(-c2c(C(=O)CF)n(CCCO)c3ncnc(N)c23)cc1 | 18
48 | NC(=O)N1CCC(CC(=O)N2CCC([C@H]3c4ncc(Br)cc4CCc4cc(Cl)cc(Br)c43)CC2)CC1 | 73.5

Row | SMILES | Papp [×10⁻⁶ cm/s]
49 | CC1(C)S[C@@H]2[C@H](NC(=O)C(C(=O)Oc3ccc4c(c3)CCC4)c3ccccc3)C(=O)N2[C@H]1C(=O)O (some centres undefined) | < 1
50 | O=C(Nc1cnn2ccc(N3CCC[C@@H]3c3cc(F)ccc3F)nc12)N1CC[C@H](O)C1 | 3
51 | Cn1nnnc1Sc1ncnc2scc(-c3ccc4c(c3)OCO4)c12 | 240
52 | CC(=O)OCC1=C(C(=O)O)N2C(=O)C(NC(=O)Cc3cccs3)C2SC1 (centres undefined) | 2
53 | O=C(O)Cc1ccc2c(c1)C(=O)c1ccccc1CO2 | < 1
54 | Cc1ccnc2c1NC(=O)c1cccnc1N2C1CC1 | 26
55 | CC[C@@]1(O)C(=O)OCc2c1cc1n(c2=O)Cc2c-1nc1ccccc1c2/C=N/OC(C)(C)C | 81
56 | CN1CCN(c2ccc(C(=O)Nc3n[nH]c4ccc(Cc5cc(F)cc(F)c5)cc34)c(NC3CCOCC3)c2)CC1 | 113
57 | C[C@@]12CCCCC[C@@H](Cc3ccc(O)cc31)[C@H]2N | 74
58 | CCN(CC)CCCN(c1ccccc1)C1Cc2ccccc2C1 | 125
59 | CC(=O)OC(C)OC(=O)C(C)c1ccc(-c2ccccc2)c(F)c1 (centres undefined) | > 300
60 | CC1=C2C[C@H]3[C@@H](CC[C@@H]4C[C@H](NS(C)(=O)=O)CC[C@@]43C)[C@@H]2CC[C@@]2(C1)O[C@@H]1C[C@H](C)CN[C@H]1[C@H]2C | 132
61 | Cc1cccc(C#Cc2cc(F)cc(C#N)c2)n1 | 209
62 | CC(OC(=O)NCC1(CC(=O)O)CCCCC1)OC(=O)C(C)C (centres undefined) | 143
63 | COc1ccc(Cn2c(-c3ccccc3)c(-c3ccccc3)c3c(=N)n(CC4CCCO4)cnc32)cc1 (centres undefined) | 297
64 | CO[C@@]1(NC(=O)C(C(=O)O)c2ccc(O)cc2)C(=O)N2C(C(=O)O)=C(CSc3nnnn3C)CO[C@@H]21 (some centres undefined) | < 1
65 | CC1=C(C(=O)O)N2C(=O)[C@@H](N)[C@H]2SC1 | < 1
66 | CCOc1cc2ncc(C#N)c(Nc3ccc(F)c(Cl)c3)c2cc1NC(=O)C=CCN(C)C | 256
67 | CC(=O)Nc1c(I)c(C(=O)N[C@H]2C(O)O[C@H](CO)[C@@H](O)[C@@H]2O)c(I)c(N(C)C(C)=O)c1I (some centres undefined) | 2
68 | OCCOCCN1CCN(C(c2ccccc2)c2ccc(Cl)cc2)CC1 (centres undefined) | 114
69 | CO/N=C(/C(=O)N[C@@H]1C(=O)N2C(C(=O)O)=C(COC(N)=O)CS[C@H]12)c1ccco1 | 2
70 | COC1CC(=C(c2cccs2)c2cccs2)C[N+](C)(C)C1 (centres undefined) | < 1
71 | CC1(C)S[C@@H]2[C@H](NC(=O)C3(N)CCCCC3)C(=O)N2[C@H]1C(=O)O | 54
72 | CCNC(=O)c1noc(-c2cc(C(C)C)c(O)cc2O)c1-c1ccc(CN2CCOCC2)cc1 | 117

Row | SMILES | Papp [×10⁻⁶ cm/s]
73 | C=Cc1c(C)c2cc3nc(c(CC(=O)N[C@@H](CC(=O)O)C(=O)O)c4nc(cc5[nH]c(cc1[nH]2)c(C)c5CC)C(C)=C4C(=O)O)[C@@H](CCC(=O)O)[C@@H]3C | < 1
74 | CCCCN(CCCC)C(=O)CN1C[C@H](c2ccc3c(c2)OCO3)[C@@H](C(=O)O)[C@@H]1c1ccc(OC)cc1 | 9
75 | COc1cc([C@@H]2c3cc4c(cc3[C@@H](O[C@@H]3O[C@@H]5CO[C@@H](C)O[C@@H]5[C@H](O)[C@@H]3O)[C@H]3COC(=O)[C@H]23)OCO4)cc(OC)c1O | 3
76 | COc1c(C)c2c(c(O)c1C/C=C(\C)CCC(=O)O)C(=O)OC2 | < 1
77 | O=C(NCc1cnccn1)c1ccc(-c2ncc3cnc(-c4cccc(F)c4)cn23)cc1 | 94
78 | CCCC(C)(COC(N)=O)COC(=O)NC(C)C (centres undefined) | 11
79 | O=C(NCc1ccc(OC(F)(F)F)cc1)C1c2ccccc2C(=O)N1C1CCOCC1 (centres undefined) | 42
80 | COc1c(C)cnc(Cn2cnc3c(Cl)nc(N)nc32)c1C | 3.17
81 | CCNC(=O)c1cc2c(-c3cc(OCCN4CCCC4)c(Cl)cc3Cl)nc(N)nc2s1 | 123
82 | COc1cc(/C=C/C(=O)NCCn2c(C(F)(F)F)cc3ccccc32)cc(OC)c1OC | > 300
83 | Cc1[nH]c2ccccc2c1CCNCc1ccc(C=CC(=O)NO)cc1 | < 1
84 | CON(C)Cc1ccc(O)c2c1C[C@H]1C[C@H]3[C@H](N(C)C)C(=O)C(C(N)=O)=C(O)[C@@]3(O)C(=O)C1=C2O | 2
85 | COc1ccccc1NC(=O)C1=C(C)Nc2c(C(=O)Nc3cccc(C)c3)cnn2C1c1ccccc1Cl (centres undefined) | 160
86 | Cc1nn(C)c(C)c1-c1cccc2c1CCC(N(C)C)C2 (centres undefined) | 13.4
87 | CC[C@@H](c1ccc(F)c(F)c1)n1c(C(=O)OC)c(-c2ccno2)[nH]c1=S | 195
88 | O=C(c1ccc(-c2ncc3cnc(-c4cccc(F)c4)cn23)cc1)N1CC(O)C1 | 27
89 | CN1CCCC(=C(c2cccs2)c2cccs2)C1 | < 1
90 | CC(C)C[C@@H](C(=O)N[C@@H](Cc1ccc(OCc2ccccc2)cc1)C(=O)NC(C)(C)C)N(C)Cc1ccc(C(C)(C)C)cc1 | > 300
91 | CC(=O)OCC1=C(C(=O)O)N2C(=O)[C@@H](NC(=O)[C@H](N)c3ccccc3)[C@H]2SC1 | < 1
92 | N#Cc1c[nH]c2c(C(=O)N3CCN(CCc4ccc(F)cc4)CC3)cccc12 | 121
93 | COCCNCCCn1c(C(=O)CF)c(-c2ccc(C)cc2)c2c(N)ncnc21 | 20
94 | CO[C@H]1/C=C\C=C(\C)C(=O)NC2=CC(=O)C(NCCN(C)C)=C(C[C@@H](C)C[C@H](OC)[C@H](O)[C@@H](C)/C=C(/C)[C@@H]1OC(N)=O)C2=O | 11.9
